Among the data in ChEMBL document CHEMBL5052835, “Slc26a3 inhibitors and use thereof” (2021) are IC50 and inhibition values, retold here.

Activity calls are given as the source filed them. No cut-off for these calls is given here.

The nature of test [1]: Inhibition of Slc26a3-mediated HCO3- influx/Cl efflux in rat FRT cells measured by fluorescence assay. In kind it is cell-based.
The subject of test [2] is Mus musculus. Kind of test: In vivo inhibition of slc26a3 in loperamide-induced constipation model of female CD-1 mouse at 5 mg/kg, po assessed as reduction in pellet number. In kind it is functional, organism-based.
For test [3], the target named is T1, Solute carrier family 26 member 6 (Mus musculus) (UniProt Q8CIW6).
T1 sequence (whole entry): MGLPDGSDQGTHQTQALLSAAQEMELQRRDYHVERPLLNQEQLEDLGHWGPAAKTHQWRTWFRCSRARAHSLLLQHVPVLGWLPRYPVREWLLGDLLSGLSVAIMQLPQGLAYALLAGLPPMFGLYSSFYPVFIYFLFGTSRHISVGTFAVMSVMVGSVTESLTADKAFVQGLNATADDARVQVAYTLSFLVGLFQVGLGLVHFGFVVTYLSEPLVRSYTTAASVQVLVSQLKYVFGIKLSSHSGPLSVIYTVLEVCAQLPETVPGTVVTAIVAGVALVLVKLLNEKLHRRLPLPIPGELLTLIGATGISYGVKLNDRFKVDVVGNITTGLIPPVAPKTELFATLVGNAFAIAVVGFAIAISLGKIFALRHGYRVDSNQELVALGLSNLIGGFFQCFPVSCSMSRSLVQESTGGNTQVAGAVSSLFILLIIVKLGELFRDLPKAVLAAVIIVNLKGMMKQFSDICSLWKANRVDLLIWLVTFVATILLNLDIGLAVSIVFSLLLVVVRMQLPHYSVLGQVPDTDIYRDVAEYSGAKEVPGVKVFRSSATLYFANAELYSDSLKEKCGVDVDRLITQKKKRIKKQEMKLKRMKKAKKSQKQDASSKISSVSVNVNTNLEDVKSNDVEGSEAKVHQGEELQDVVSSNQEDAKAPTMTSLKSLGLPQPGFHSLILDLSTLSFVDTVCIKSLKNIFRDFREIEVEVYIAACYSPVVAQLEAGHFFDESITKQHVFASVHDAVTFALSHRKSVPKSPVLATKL
Briefly: Inhibition of mouse Slc26a6-mediated Cl-/ I- exchange at 10 uM measured by cell-based fluorescence assay.

Test [4] relates to Mus musculus. Kind of test: In vivo inhibition of slc26a3 in loperamide-induced constipation model of cystic fibrosis mouse at 5 mg/kg, po assessed as reduction in pellet number. Type of test: functional, organism-based.
The subject of test [5] is Jejunum. Briefly: Inhibition of fluid absorption in mid-jejunal loops isolated from female CD-1 mouse at 10 uM assessed as effect on reduction in loop weight/length ratio. Type of test: functional, tissue-based.
The subject of test [6] is Mus musculus. Briefly: Inhibition of oxalate absorption in high oxalate and low calcium diet-induced oxalate nephropathy model of mouse at 5 mg/kg, po assessed as reduction in urine sediment. In kind it is functional, organism-based.
In test [7] the test system is Mus musculus. Briefly: In vivo inhibition of slc26a3 in loperamide-induced constipation model of female CD-1 mouse at 5 mg/kg, po assessed as reduction in stool water content. Type of test: functional, organism-based.
The target of test [8] is T2, Anoctamin-1 (Mus musculus) (UniProt Q8BHY3).
T2 sequence (whole entry): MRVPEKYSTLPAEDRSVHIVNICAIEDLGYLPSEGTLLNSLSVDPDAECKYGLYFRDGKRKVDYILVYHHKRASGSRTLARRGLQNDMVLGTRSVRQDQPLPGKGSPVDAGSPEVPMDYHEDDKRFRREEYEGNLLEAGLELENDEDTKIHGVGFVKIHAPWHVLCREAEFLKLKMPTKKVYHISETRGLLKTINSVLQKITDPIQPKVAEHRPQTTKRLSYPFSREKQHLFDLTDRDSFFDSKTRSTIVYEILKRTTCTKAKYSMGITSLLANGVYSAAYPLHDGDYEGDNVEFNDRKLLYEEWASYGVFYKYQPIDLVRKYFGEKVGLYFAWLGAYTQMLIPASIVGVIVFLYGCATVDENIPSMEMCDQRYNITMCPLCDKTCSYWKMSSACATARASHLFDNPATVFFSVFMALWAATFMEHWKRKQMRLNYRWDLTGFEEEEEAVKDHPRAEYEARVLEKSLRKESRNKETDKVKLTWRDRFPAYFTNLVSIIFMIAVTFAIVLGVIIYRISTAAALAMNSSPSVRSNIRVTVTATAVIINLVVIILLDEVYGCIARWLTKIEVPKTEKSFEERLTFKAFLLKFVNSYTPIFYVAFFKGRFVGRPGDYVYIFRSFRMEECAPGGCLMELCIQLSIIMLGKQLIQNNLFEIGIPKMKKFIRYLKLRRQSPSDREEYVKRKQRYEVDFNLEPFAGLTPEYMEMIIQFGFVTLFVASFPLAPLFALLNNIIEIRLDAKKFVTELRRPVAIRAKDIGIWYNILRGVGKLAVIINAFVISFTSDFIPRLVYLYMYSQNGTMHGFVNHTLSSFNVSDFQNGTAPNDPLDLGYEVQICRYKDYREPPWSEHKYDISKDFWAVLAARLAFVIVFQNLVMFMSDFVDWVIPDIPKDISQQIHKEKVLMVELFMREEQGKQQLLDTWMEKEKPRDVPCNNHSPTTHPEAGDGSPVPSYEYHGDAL
Kind of test: Inhibition of mouse TMEM16A at 10 uM measured by cell-based fluorescence assay.

The subject of test [9] is Mus musculus. Kind of test: In vivo inhibition of slc26a3 in loperamide-induced constipation model of female CD-1 mouse at 5 mg/kg, po assessed as reduction in stool weight. Type of test: functional, organism-based.
The subject of test [10] is Mus musculus. Kind of test: Inhibition of oxalate absorption in high oxalate and low calcium diet-induced oxalate nephropathy model of mouse at 5 mg/kg, po assessed as reduction in kidney damage. In kind it is functional, organism-based.
Test [11] has as its system Mus musculus. Kind of test: In vivo inhibition of slc26a3 in loperamide-induced constipation model of female CD-1 mouse at 5 mg/kg, po co-administered with tenapanor assessed as reduction in stool weight. Type of test: functional, organism-based.
In test [12] the test system is HBE. Kind of test: Inhibition of ENaC in human HBE cells at 10 uM pretreated with amiloride assessed as effect on short-circuit current responses. In kind it is cell-based.
The subject of test [13] is Mus musculus. Kind of test: In vivo inhibition of slc26a3 in loperamide-induced constipation model of female CD-1 mouse at 5 mg/kg, po co-administered with tenapanor assessed as reduction in stool water content. Type of test: functional, organism-based.
The test system of test [14] is HBE. Kind of test: Inhibition of CaCC in human HBE cells at 10 uM pretreated with ATP assessed as effect on short-circuit current responses. Type of test: cell-based.
Test [15] relates to Mus musculus. Briefly: In vivo inhibition of slc26a3 in loperamide-induced constipation model of female CD-1 mouse at 5 mg/kg, po co-administered with tenapanor assessed as reduction in pellet number. In kind it is functional, organism-based.
Another test has as its system Colon. Briefly: Inhibition of fluid absorption in distal colonic loop isolated from female CD-1 mouse at 10 uM assessed as effect on reduction in loop weight/length ratio in presence of 10 microM tenapanor. In kind it is functional, tissue-based.
Test [16] has as its system Jejunum. Briefly: Inhibition of fluid absorption in mid-jejunal loops isolated from female CD-1 mouse at 10 uM assessed as effect on reduction in loop weight/length ratio in presence of 10 microM tenapanor. Type of test: functional, tissue-based.
Test [17] is filed under the species Mus musculus. Briefly: Inhibition of mouse Slc26a9-mediated Cl-/ I- exchange at 10 uM measured by cell-based fluorescence assay.
The test system of test [18] is Mus musculus. Kind of test: In vivo inhibition of slc26a3 in loperamide-induced constipation model of cystic fibrosis mouse at 5 mg/kg, po assessed as reduction in stool weight. In kind it is functional, organism-based.

With `Cc1c(CC(=O)O)c(=O)oc2c(C)c(OCc3cccc(Br)c3)ccc12`, in test [1], the IC50 (usually the concentration needed to halve the response being measured) is 100 nM. The inhibition entry in the test with Mus musculus [2], in the test with Mus musculus [4], in the test with Jejunum [5], with Mus musculus [6], in the test with Mus musculus [7] and in the test with Mus musculus [9] was “Active” in each case. For the same compound, the inhibition entry in the test with Mus musculus [10], in the test with Mus musculus [11], in the test with Mus musculus [13], in the test with Mus musculus [15], with Colon and in the test with Jejunum [16] was “Active” in each case. Also, the inhibition entry in the test on Mus musculus [18] was “Active”. The inhibition result (in test [3]; in test [8]; in the test on HBE [12]; in the test on HBE [14]; in the test filed under Mus musculus [17]) was “inactive” throughout.
